Reference: patent US10342796B2, “Acrylanilide derivative, preparation method, and applications thereof in pharmacy” (Ancureall Pharmaceutical (Shanghai) Co., Ltd., priority 2015, dated 2019)

Experiments:
Assay in all cases: Growth inhibition GI50 in vitro (CCK8/MTT, 72 h)
Format in all cases: cell-based, human
[1] = system: AU565 (Her2 amp); settings: Homo sapiens, AU565; HER2 positive cell line; range of GI50; read-out: GI50 AU-565
[2] = system: PC-9 (EGFR dE746-A750); settings: Homo sapiens; EGFR mutant cell line; range of GI50; read-out: GI50 PC-9
[3] = system: PC-9ER (EGFR delE746-A750/T790M); settings: Homo sapiens, PC-9/ER; EGFR mutant cell line; range of GI50; read-out: GI50 PC9ER
[4] = system: H1975 (EGFR L858R/T790M); settings: Homo sapiens, NCI-H1975; EGFR mutant cell line; range of GI50; read-out: GI50 H1975
[5] = system: HCC827 (EGFR dE746-A750); settings: Homo sapiens, HCC827; EGFR mutant cell line; range of GI50; read-out: GI50 HCC827
[6] = system: H460 (EGFR wt, Kras G61H); settings: Homo sapiens, NCI-H460; EGFR wild type cell line; range of GI50; read-out: GI50 H460
[7] = system: A431 (EGFR WT, amplification and high expression); settings: Homo sapiens, A-431; EGFR wild type cell line; range of GI50; read-out: GI50 A431
[8] = system: H1299 (EGFR wt, Nras Q61K); settings: Homo sapiens, NCI-H1299; EGFR wild type cell line; range of GI50; read-out: GI50 H1299
[9] = system: A549 (EGFR WT); settings: Homo sapiens, A549; EGFR wild type cell line; range of GI50; read-out: GI50 A549
[10] = system: N87 (HER2 Amp); settings: Homo sapiens; HER2 positive cell line; range of GI50; read-out: GI50 N87
[11] = system: SK-BR-3 (Her2 amp); settings: Homo sapiens, SK-BR-3; HER2 positive cell line; range of GI50; read-out: GI50 SK-BR-3
Protocol: Human lung adenocarcinoma cell line Calu-3 (ATCC) was cultured with 1×MEM complete medium (10% FBS, 1% double-antibiotics, 1% NEAA (Gibco), 2 mM glutamine and 1 mM of sodium pyruvate). Human breast cancer cell line SK-BR-3 was cultured with McCOY'S5A complete medium (10% FBS). Human colon cancer cell line SNU1040 (HER2 V777M positive) (ATCC) and human bronchoalveolar adenocarcinoma cell line NCI-H1781 (expressing HER2 exon 20 G776VC mutation) (ATCC) were cultured with 1×RPMI1640 complete medium (10% FBS), respectively.
The suspension cells were collected by centrifugation. The supernatant was discard and the cell pellet was resuspended and counted. Different cell concentrations (5˜10×10^4 cells/mL) were prepared according to the growth cycle of each cell line and then seeded on a 96-well plate (Corning), 100 μL/well. The cells were incubated over night at 37° C., 5% CO2. The compounds were added to the cells on the second day with 2 wells in parallel. The final concentration of organic solvent shall not exceed 1%. The cells were continually incubated for 72 h, and then subjected to MTT assay.
The present compounds and the reference compounds were dissolved with DMSO (Sigma), respectively. […] The storage concentration of compounds was 10 mM and kept at −20° C. They were diluted by 2 times or 10 times with serial dilution before using.
Dojindo CCK8 reagent kit was used as MTT assay. […] FC meter was used as microplate reader.
Adherent cell culture medium was discard and immediately replaced with fresh prepared medium which contains 10% CCK8 reagent (100 μL/well). For the suspension cells, CCK8 was directly added to 10% of the final concentration. The cells were continually incubated for 1˜4 h. When the color of control wells turned to dark yellow, the absorption value was measured at OD450 nm. The cell growth rate was calculated according to the following formula: cell growth rate (%)=100*(T−T0)/(C−T0), T=optical density of drug treatment cell well—optical density of blank control well; T0=optical density of cell well before drug treatment—optical density of blank control well; C=optical density of cell well of solvent control group—optical density of blank control well. […] The experiment was independently repeated 1˜3 times, and subject to biological statistical analysis.

Row | GI50 [2] | GI50 [3] | GI50 [4] | GI50 [5] | GI50 [6] | GI50 [7] | GI50 [8] | GI50 [9] | GI50 [11] | Compound | GI50 [1] | GI50 [10]
1 | < 10 nM | < 10 nM | < 10 nM | < 10 nM | > 1000 nM | 10 to 100 nM | > 1000 nM | > 1000 nM | < 10 nM | C=CC(=O)Nc1cc(Nc2cc(Nc3ccc(F)c(Cl)c3)ncn2)c(OC)cc1N1CCCN(C)CC1 [Compound 144, N-(5-(6-(3-chloro-4-fluoro-phenylamino)-pyrimidin-4-ylamino)-2-(4-methyl-[1,4]diazepin-1-yl)-4-methoxyl-phenyl)-acrylamide] | < 10 nM | < 10 nM
2 | < 10 nM | < 10 nM | 10 to 100 nM | < 10 nM | > 1000 nM | 10 to 100 nM | > 1000 nM | > 1000 nM | 10 to 100 nM | C=CC(=O)Nc1cc(Nc2cc(Nc3ccc(F)c(Cl)c3)ncn2)c(OC)cc1N1CCN(C)CC1 [Compound 145, N-(5-(6-(3-chloro-4-fluoro-phenylamino)-pyrimidin-4-ylamino)-4-methoxyl-2-(4-methyl-piperazin-1-yl)-phenyl)-acrylamide] | 10 to 100 nM | < 10 nM
3 | < 10 nM | < 10 nM | < 10 nM | < 10 nM | > 1000 nM | 10 to 100 nM | > 1000 nM | > 1000 nM | < 10 nM | C=CC(=O)Nc1cc(Nc2cc(Nc3ccc(F)c(Cl)c3)ncn2)c(OC)cc1OCCN(C)C [Compound 148, N-(5-(6-(3-chloro-4-fluoro-phenylamino)-pyrimidin-4-ylamino)-2-(2-dimethylamino-ethoxyl)-4-methoxyl-phenyl)-acrylamide] | < 10 nM | 10 to 100 nM
4 | < 10 nM | < 10 nM | < 10 nM | < 10 nM | > 1000 nM | 10 to 100 nM | > 1000 nM | > 1000 nM | < 10 nM | C=CC(=O)Nc1cc(Nc2cc(Nc3ccc(F)c(Cl)c3)ncn2)c(OC)cc1OCCN1CCN(C)CC1 [Compound 150, N-(5-(6-(3-chloro-4-fluoro-phenylamino)-pyrimidin-4-ylamino)-2-(2-(4-methyl-piperazin-lyl)-ethoxyl)-4-methoxyl-phenyl)-acrylamide] | 10 to 100 nM | 10 to 100 nM

More lines, now with the values behind:

Row | Compound | GI50 [2] | GI50 [3] | GI50 [4] | GI50 [5] | GI50 [6] | GI50 [7] | GI50 [8] | GI50 [9] | GI50 [11] | GI50 [1] | GI50 [10]
5 | C=CC(=O)Nc1cc(Nc2ncnc(Nc3ccc(F)c(Cl)c3)n2)c(OC)cc1N(C)CCN(C)C [Compound 109, N-(5-(4-(3-chloro-4-fluoro-phenylamino)-[1,3,5]triazin-2-ylamino)-2-((2-dimethylamino-ethyl)-methyl-amino)-4-methoxyl-phenyl)-acrylamide] | 10 to 100 nM | 10 to 100 nM | 10 to 100 nM | 10 to 100 nM | > 1000 nM | 100 to 1000 nM | > 1000 nM | > 1000 nM | 10 to 100 nM | 10 to 100 nM | 10 to 100 nM
6 | C=CC(=O)Nc1cc(Nc2ncnc(Nc3cccc(Cl)c3F)n2)c(OC)cc1N(C)CCN(C)C [Compound 110, N-(5-(4-(3-chloro-2-fluoro-phenylamino)-[1,3,5]triazin-2-ylamino)-2-((2-dimethylamino-ethyl)-methyl-amino)-4-methoxyl-phenyl)-acrylamide] | < 10 nM | < 10 nM | 10 to 100 nM | < 10 nM | > 1000 nM | 100 to 1000 nM | > 1000 nM | > 1000 nM | 10 to 100 nM | 10 to 100 nM | < 10 nM
7 | C=CC(=O)Nc1cc(Nc2ncnc(Nc3cccc(C(F)(F)F)c3)n2)c(OC)cc1N(C)CCN(C)C [Compound 113, N-(5-(4-(3-trifluoromethyl-phenylamino)-[1,3,5]triazin-2-ylamino)-2-((2-dimethylamino-ethyl)-methyl-amino)-4-methoxyl-phenyl)-acrylamide] | < 10 nM | < 10 nM | 10 to 100 nM | < 10 nM | > 1000 nM | 100 to 1000 nM | > 1000 nM | > 1000 nM | 100 to 1000 nM | 10 to 100 nM | 10 to 100 nM
8 | C=CC(=O)Nc1cc(Nc2cc(Nc3cccc(Br)c3)ncn2)c(OC)cc1N(C)CCN(C)C [Compound 133, N-(5-(6-(3-bromophenylamino)-pyrimidin-4-ylamino)-2-((2-dimethylamino-ethyl)-methyl-amino)-4-methoxyl-phenyl)-acrylamide] | < 10 nM | < 10 nM | < 10 nM | < 10 nM | > 1000 nM | 10 to 100 nM | > 1000 nM | > 1000 nM | < 10 nM | < 10 nM | < 10 nM
9 | C=CC(=O)Nc1cc(Nc2cc(Nc3cccc(C(F)(F)F)c3)ncn2)c(OC)cc1N(C)CCN(C)C [Compound 134] | < 10 nM | 10 to 100 nM | 10 to 100 nM | < 10 nM | > 1000 nM | 100 to 1000 nM | > 1000 nM | > 1000 nM | 10 to 100 nM | 10 to 100 nM | 10 to 100 nM
10 | C#Cc1cccc(Nc2cc(Nc3cc(NC(=O)C=C)c(N(C)CCN(C)C)cc3OC)ncn2)c1 [Compound 135, N-(5-(6-(3-alkynyl-phenylamino)-pyrimidin-4-ylamino)-2-((2-dimethylamino-ethyl)-methyl-amino)-4-methoxyl-phenyl)-acrylamide] | < 10 nM | < 10 nM | < 10 nM | < 10 nM | > 1000 nM | 10 to 100 nM | > 1000 nM | > 1000 nM | < 10 nM | < 10 nM | 10 to 100 nM
11 | C=CC(=O)Nc1cc(Nc2cc(Nc3cc(F)cc(Br)c3)ncn2)c(OC)cc1N(C)CCN(C)C [Compound 139, N-(5-(6-(3-bromo-5-fluoro-phenylamino)-pyrimidin-4-ylamino)-2-((2-dimethylamino-ethyl)-methyl-amino)-4-methoxyl-phenyl)-acrylamide] | < 10 nM | < 10 nM | 10 to 100 nM | < 10 nM | > 1000 nM | 100 to 1000 nM | > 1000 nM | > 1000 nM | < 10 nM | < 10 nM | < 10 nM
12 | C=CC(=O)Nc1cc(Nc2cc(Nc3ccc(F)c(Cl)c3)ncn2)c(OC)cc1N1CCC(N2CCOCC2)CC1 [Compound 143, N-(5-(6-(3-chloro-4-fluoro-phenylamino)-pyrimidin-4-ylamino)-4-methoxyl-2-(4-morpholin-4-yl-piperidin-1-yl)-phenyl)-acrylamide] | < 10 nM | < 10 nM | < 10 nM | < 10 nM | > 1000 nM | 10 to 100 nM | > 1000 nM | > 1000 nM | < 10 nM | < 10 nM | < 10 nM
